Measured values as given in US12503461B2, “Pesticidally active heterocyclic derivatives with sulfur and sulfoximine containing substituents” (SYNGENTA CROP PROTECTION AG, priority 2019, dated 2025).

What was measured:
Format in all cases: in vivo
[1] = tested on: Plutella xylostella (Diamond Back Moth); assay: Example B4: Plutella xylostella (diamond back moth), treated artificial diet, eggs; conditions: 192 h, application rate of 200 ppm, 8 days after infestation, in comparison to untreated samples, read-out: effect in at least one of the two categories (mortality or growth inhibition)
Method: Example B4: Plutella xylostella (Diamond Back Moth
24-well microtiter plates with artificial diet were treated with aqueous test solutions prepared from 10′000 ppm DMSO stock solutions by pipetting. After drying, Plutella eggs were pipetted through a plastic stencil onto a gel blotting paper and the plate was closed with it. The samples were assessed for mortality and growth inhibition in comparison to untreated samples 8 days after infestation.

[2] = tested on: Diabrotica balteata (Corn Root Worm); assay: Example B1: Diabrotica balteata (corn root worm), sprayed maize sprouts on agar, L2 larvae; conditions: 96 h, application rate of 200 ppm, 4 days after infestation, in comparison to untreated samples, read-out: effect in at least one of the two categories (mortality or growth inhibition)
Method: Example B1: Diabrotica balteata (Corn Root Worm
Maize sprouts placed onto an agar layer in 24-well microtiter plates were treated with aqueous test solutions prepared from 10′000 ppm DMSO stock solutions by spraying. After drying, the plates were infested with L2 larvae (6 to 10 per well). The samples were assessed for mortality and growth inhibition in comparison to untreated samples 4 days after infestation.

[3] = tested on: Spodoptera littoralis (Egyptian Cotton Leaf Worm); assay: Example B7: Spodoptera littoralis (Egyptian cotton leaf worm), sprayed cotton leaf discs, L1 larvae; conditions: foliar, 72 h, application rate of 200 ppm, 3 days after infestation, in comparison to untreated samples
Method: Example B7: Spodoptera littoralis (Egyptian Cotton Leaf Worm
Cotton leaf discs were placed onto agar in 24-well microtiter plates and sprayed with aqueous test solutions prepared from 10′000 ppm DMSO stock solutions. After drying the leaf discs were infested with five L1 larvae. The samples were assessed for mortality, anti-feeding effect, and growth inhibition in comparison to untreated samples 3 days after infestation. Control of Spodoptera littoralis by a test sample is given when at least one of the categories mortality, anti-feedant effect, and growth inhibition is higher than the untreated sample.

[4] = tested on: Myzus persicae (Green Peach Aphid); assay: Example B5: Myzus persicae (green peach aphid), feeding/contact activity, sprayed sunflower leaf discs; conditions: foliar, 144 h, application rate of 200 ppm, aphid population of mixed ages, 6 days after infestation
Method: Example B5: Myzus persicae (Green Peach Aphid). Feeding/Contact Activity
Sunflower leaf discs were placed onto agar in a 24-well microtiter plate and sprayed with aqueous test solutions prepared from 10′000 ppm DMSO stock solutions. After drying, the leaf discs were infested with an aphid population of mixed ages. The samples were assessed for mortality 6 days after infestation.

[5] = tested on: Euschistus heros (Neotropical Brown Stink Bug); assay: Example B2: Euschistus heros (neotropical brown stink bug), sprayed soybean leaves, N2 nymphs; conditions: 120 h, application rate of 200 ppm, 5 days after infestation, in comparison to untreated samples, read-out: effect in at least one of the two categories (mortality or growth inhibition)
Method: Example B2: Euschistus heros (Neotropical Brown Stink Bug
Soybean leaves on agar in 24-well microtiter plates were sprayed with aqueous test solutions prepared from 10′000 ppm DMSO stock solutions. After drying the leaves were infested with N2 nymphs. The samples were assessed for mortality and growth inhibition in comparison to untreated samples 5 days after infestation.

CCN=S(=O)(c1ccc2oc(-c3ncc(N(C)C(C)=O)cc3S(=O)(=O)CC)nc2c1)C(F)(F)F (stereo not drawn) [P3, N-[5-ethylsulfonyl-6-[5-[N-ethyl-S-(trifluoromethyl)sulfonimidoyl]-1,3-benzoxazol-2-yl]-3-pyridyl]-N-methyl-acetamide]
≥ 80%: percent effect (mortality or growth inhibition) at 200 ppm [1] | percent effect (mortality or growth inhibition) at 200 ppm [2] | percent control (mortality, anti-feeding effect or growth inhibition) at 200 ppm [3] | mortality at 200 ppm [4]

CCN=S(=O)(c1ccc2oc(-c3ncc(C4(C#N)CC4)cc3S(=O)(=O)CC)nc2c1)C(F)(F)F (stereo not drawn) [P8, 1-[5-ethylsulfonyl-6-[5-[N-ethyl-S-(trifluoromethyl)sulfonimidoyl]-1,3-benzoxazol-2-yl]-3-pyridyl]cyclopropanecarbonitrile]
≥ 80%: percent effect (mortality or growth inhibition) at 200 ppm [1] | percent effect (mortality or growth inhibition) at 200 ppm [2] | effect (mortality or growth inhibition) at 200 ppm [5] | percent control (mortality, anti-feeding effect or growth inhibition) at 200 ppm [3]

CCN=S(=O)(c1ccc2oc(-c3ncc(Oc4ccccn4)cc3S(=O)(=O)CC)nc2c1)C(F)(F)F (centres unmarked) [P10, ethylimino-[2-[3-ethylsulfonyl-5-(2-pyridyloxy)-2-pyridyl]-1,3-benzoxazol-5-yl]-oxo-(trifluoromethyl)-λ^6-sulfane]
≥ 80%: percent effect (mortality or growth inhibition) at 200 ppm [1] | percent effect (mortality or growth inhibition) at 200 ppm [2] | effect (mortality or growth inhibition) at 200 ppm [5] | percent control (mortality, anti-feeding effect or growth inhibition) at 200 ppm [3]

CCS(=O)(=O)c1cccnc1-c1nc2cc(S(=O)(=NC3CC3)C(F)(F)F)ccc2o1 (centres unmarked) [P13, cyclopropylimino-[2-(3-ethylsulfonyl-2-pyridyl)-1,3-benzoxazol-5-yl]-oxo-(trifluoromethyl)-λ^6-sulfane]
≥ 80%: percent effect (mortality or growth inhibition) at 200 ppm [1] | percent effect (mortality or growth inhibition) at 200 ppm [2] | percent control (mortality, anti-feeding effect or growth inhibition) at 200 ppm [3] | mortality at 200 ppm [4]

CCS(=O)(=O)c1cccnc1-c1nc2cc(S(=N)(=O)C(F)(F)F)ccc2o1 (centres unmarked) [P16, [2-(3-ethylsulfonyl-2-pyridyl)-1,3-benzoxazol-5-yl]-imino-oxo-(trifluoromethyl)-λ^6-sulfane]
≥ 80%: percent effect (mortality or growth inhibition) at 200 ppm [1] | percent effect (mortality or growth inhibition) at 200 ppm [2] | effect (mortality or growth inhibition) at 200 ppm [5] | percent control (mortality, anti-feeding effect or growth inhibition) at 200 ppm [3]

CCN=S(=O)(c1ccc2oc(-c3ncc(OCC(F)(F)F)cc3S(=O)(=O)CC)nc2c1)C(F)(F)F (centres unmarked) [P22, ethylimino-[2-[3-ethylsulfonyl-5-(2,2,2-trifluoroethoxy)-2-pyridyl]-1,3-benzoxazol-5-yl]-oxo-(trifluoromethyl)-λ^6-sulfane]
≥ 80%: percent effect (mortality or growth inhibition) at 200 ppm [1] | percent effect (mortality or growth inhibition) at 200 ppm [2] | effect (mortality or growth inhibition) at 200 ppm [5] | percent control (mortality, anti-feeding effect or growth inhibition) at 200 ppm [3]

CCS(=O)(=O)c1cc(OCC(F)(F)F)cnc1-c1nc2cc(S(=O)(=NC(C)=O)C(F)(F)F)ccc2o1 (centres unmarked) [P24, N-[[2-[3-ethylsulfonyl-5-(2,2,2-trifluoroethoxy)-2-pyridyl]-1,3-benzoxazol-5-yl]-oxo-(trifluoromethyl)-λ^6-sulfanylidene]acetamide]
≥ 80%: percent effect (mortality or growth inhibition) at 200 ppm [1] | percent effect (mortality or growth inhibition) at 200 ppm [2] | effect (mortality or growth inhibition) at 200 ppm [5] | percent control (mortality, anti-feeding effect or growth inhibition) at 200 ppm [3]

CCS(=O)(=O)c1cc(Oc2ccccn2)cnc1-c1nc2cc(S(=O)(=NC(C)=O)C(F)(F)F)ccc2o1 (centres unmarked) [P25, N-[[2-[3-ethylsulfonyl-5-(2-pyridyloxy)-2-pyridyl]-1,3-benzoxazol-5-yl]-oxo-(trifluoromethyl)-λ^6-sulfanylidene]acetamide]
≥ 80%: percent effect (mortality or growth inhibition) at 200 ppm [1] | percent effect (mortality or growth inhibition) at 200 ppm [2] | effect (mortality or growth inhibition) at 200 ppm [5] | percent control (mortality, anti-feeding effect or growth inhibition) at 200 ppm [3]

CCS(=O)(=O)c1cc(C2(C#N)CC2)cnc1-c1nc2cc(S(=O)(=NC)C(F)(F)F)ccc2o1 (stereo not drawn) [P29, 1-[5-ethylsulfonyl-6-[5-[N-methyl-S-(trifluoromethyl)sulfonimidoyl]-1,3-benzoxazol-2-yl]-3-pyridyl]cyclopropanecarbonitrile]
≥ 80%: percent effect (mortality or growth inhibition) at 200 ppm [1] | percent effect (mortality or growth inhibition) at 200 ppm [2] | effect (mortality or growth inhibition) at 200 ppm [5] | percent control (mortality, anti-feeding effect or growth inhibition) at 200 ppm [3]

CCS(=O)(=O)c1cc(C2(C#N)CC2)cnc1-c1nc2cc(S(=O)(=NC3CC3)C(F)(F)F)ccc2n1C (stereo not drawn) [P31, 1-[6-[5-[N-cyclopropyl-S-(trifluoromethyl)sulfonimidoyl]-1-methyl-benzimidazol-2-yl]-5-ethylsulfonyl-3-pyridyl]cyclopropanecarbonitrile]
≥ 80%: percent effect (mortality or growth inhibition) at 200 ppm [1] | percent effect (mortality or growth inhibition) at 200 ppm [2] | effect (mortality or growth inhibition) at 200 ppm [5]

CCN=S(=O)(c1ccc2oc(-c3ncc(-c4ncccn4)cc3S(=O)(=O)CC)nc2c1)C(F)(F)F (centres unmarked) [P35, ethylimino-[2-(3-ethylsulfonyl-5-pyrimidin-2-yl-2-pyridyl)-1,3-benzoxazol-5-yl]-oxo-(trifluoromethyl)-λ^6-sulfane]
≥ 80%: percent effect (mortality or growth inhibition) at 200 ppm [1] | percent effect (mortality or growth inhibition) at 200 ppm [2] | effect (mortality or growth inhibition) at 200 ppm [5] | percent control (mortality, anti-feeding effect or growth inhibition) at 200 ppm [3]

CCS(=O)(=O)c1cc(-c2ncccn2)cnc1-c1nc2cc(S(=N)(=O)C(F)(F)F)ccc2o1 (centres unmarked) [P36, [2-(3-ethylsulfonyl-5-pyrimidin-2-yl-2-pyridyl)-1,3-benzoxazol-5-yl]-imino-oxo-(trifluoromethyl)-λ^6-sulfane]
≥ 80%: percent effect (mortality or growth inhibition) at 200 ppm [1] | percent effect (mortality or growth inhibition) at 200 ppm [2] | effect (mortality or growth inhibition) at 200 ppm [5] | percent control (mortality, anti-feeding effect or growth inhibition) at 200 ppm [3]

CCS(=O)(=O)c1cc(-c2ncc(Cl)cn2)cnc1-c1nc2cc(S(=N)(=O)C(F)(F)F)ccc2o1 (centres unmarked) [P42, [2-[5-(5-chloropyrimidin-2-yl)-3-ethylsulfonyl-2-pyridyl]-1,3-benzoxazol-5-yl]-imino-oxo-(trifluoromethyl)-λ^6-sulfane]
≥ 80%: percent effect (mortality or growth inhibition) at 200 ppm [1] | percent effect (mortality or growth inhibition) at 200 ppm [2] | effect (mortality or growth inhibition) at 200 ppm [5] | percent control (mortality, anti-feeding effect or growth inhibition) at 200 ppm [3]

CCS(=O)(=O)c1ccc(-n2cncn2)nc1-c1nc2cc(S(=N)(=O)C(F)(F)F)ccc2n1C (centres unmarked) [P44, [2-[3-ethylsulfonyl-6-(1,2,4-triazol-1-yl)-2-pyridyl]-1-methyl-benzimidazol-5-yl]-imino-oxo-(trifluoromethyl)-λ^6-sulfane]
≥ 80%: percent effect (mortality or growth inhibition) at 200 ppm [1] | percent effect (mortality or growth inhibition) at 200 ppm [2] | percent control (mortality, anti-feeding effect or growth inhibition) at 200 ppm [3] | mortality at 200 ppm [4]

CCN=S(=O)(c1ccc2c(c1)nc(-c1nc(-n3cncn3)ccc1S(=O)(=O)CC)n2C)C(F)(F)F (centres unmarked) [P45, ethylimino-[2-[3-ethylsulfonyl-6-(1,2,4-triazol-1-yl)-2-pyridyl]-1-methyl-benzimidazol-5-yl]-oxo-(trifluoromethyl)-λ^6-sulfane]
≥ 80%: percent effect (mortality or growth inhibition) at 200 ppm [1] | percent effect (mortality or growth inhibition) at 200 ppm [2] | percent control (mortality, anti-feeding effect or growth inhibition) at 200 ppm [3] | mortality at 200 ppm [4]

CCN=S(=O)(c1ccc2oc(-c3nc(-c4ncccn4)ccc3S(=O)(=O)CC)nc2c1)C(F)(F)F (centres unmarked) [P55, ethylimino-[2-(3-ethylsulfonyl-6-pyrimidin-2-yl-2-pyridyl)-1,3-benzoxazol-5-yl]-oxo-(trifluoromethyl)-λ^6-sulfane]
≥ 80%: percent effect (mortality or growth inhibition) at 200 ppm [1] | percent effect (mortality or growth inhibition) at 200 ppm [2] | percent control (mortality, anti-feeding effect or growth inhibition) at 200 ppm [3]
